biological target: T1, human protease activated receptor 1 (PAR1) (Homo sapiens, UniProt P25116); test: Cellular functional in vitro test (aequorin luminescence, PAR1 test cell); format: cell-based; conditions: recombinant HEK293-derived cell line expressing aequorin; PAR1 agonist added at its EC50 5 minutes after test substance
T1 construct: the cell stably expresses the endogenous human PAR1 receptor and the endogenous purinergic receptor P2Y2; endogenous in cells; host or cells: HEK293-derived recombinant cell line constitutively expressing mitochondrial aequorin
T1 sequence (P25116 22-425): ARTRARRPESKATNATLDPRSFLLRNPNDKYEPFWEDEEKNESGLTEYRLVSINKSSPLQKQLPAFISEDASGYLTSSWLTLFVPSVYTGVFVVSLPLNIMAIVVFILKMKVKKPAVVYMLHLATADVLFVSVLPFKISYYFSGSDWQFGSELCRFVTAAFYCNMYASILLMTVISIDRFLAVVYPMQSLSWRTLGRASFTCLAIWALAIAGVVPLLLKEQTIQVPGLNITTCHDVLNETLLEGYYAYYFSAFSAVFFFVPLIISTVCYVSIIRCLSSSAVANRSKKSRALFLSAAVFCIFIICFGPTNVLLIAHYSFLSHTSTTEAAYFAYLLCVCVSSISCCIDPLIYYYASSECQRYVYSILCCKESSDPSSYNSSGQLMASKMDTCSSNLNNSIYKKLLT
Text: 1.a) Cellular Functional In vitro Test
A recombinant cell line is used to identify […] of the human protease activated receptor 1 (PAR1) and to quantify the activity of the substances described herein. The cell is originally derived from a human embryonal kidney cell (HEK293; ATCC: American Type Culture Collection, Manassas, Va. 20108, USA). The test cell line constitutively expresses a modified form of the calcium-sensitive photoprotein aequorin which, after reconstitution with the cofactor coelenterazine, emits light when the free calcium concentration in the inner mitochondrial compartment is increased (Rizzuto R, Simpson A W, Brini M, Pozzan T.; Nature 1992, 358, 325-327). Additionally, the cell stably expresses the endogenous human PAR1 receptor and the endogenous purinergic receptor P2Y2. The resulting PAR1 test cell responds to stimulation of the endogenous PAR1 or P2Y2 receptor with an intracellular release of calcium ions, which can be quantified through resulting aequorin luminescence with a suitable luminometer (Milligan G, Marshall F, Rees S, Trends in Pharmacological Sciences 1996, 17, 235-237).
For testing the substance specificity, its effect after activation of the endogenous PAR1 receptor is compared to the effect after activation of the endogenous purinergic P2Y2 receptor which utilizes the same intracellular signal path.
Test procedure: The cells are plated out two days (48 hours) before the test in culture medium (DMEM F12, supplemented with 10% FCS, 2 mM glutamine, 20 mM HEPES, 1.4 mM pyruvate, 0.1 mg/ml gentamycin, 0.15% Na bicarbonate; BioWhittaker Cat.# BE04-687Q; B-4800 Verviers, Belgium) in 384-well microtitre plates and kept in a cell incubator (96% atmospheric humidity, 5% V/V CO2, 37° C.). On the day of the test, the culture medium is replaced by a tyrode solution (in mM: 140NaCl, 5l KCl, 1MgCl2, 2CaCl2, 20 glucose, 20 HEPES), which additionally contains the cofactor coelenterazine (25 μM) and glutathione (4 mM), and the microtitre plate is then incubated for a further 3-4 hours. The test substances are then pipetted onto the microtitre plate, and 5 minutes after the transfer of the test substances into the wells of the microtitre plate the plate is transferred into the luminometer, a PAR1 agonist concentration which corresponds to the EC50 is added and the resulting light signal is immediately measured in the luminometer. To distinguish an antagonist substance action from a toxic action, the endogenous purinergic receptor is immediately subsequently activated with agonist (ATP, final concentration 10 μM) and the resulting light signal is measured.

| SMILES | IC50 |
| --- | --- |
| CCc1ccc(C2CC(c3nc(-c4cccc(OC)c4)no3)CN(C(=O)N3CCOCC3)C2)cc1 (racemic) [Example 28, 4-({3-(4-Ethylphenyl)-5-[3-(3-methoxyphenyl)-1,2,4-oxadiazol-5-yl]piperidin-1-yl}carbonyl)-morpholine] | 28 nM |
| CCc1ccc(C2CC(c3nc(-c4ccc(F)cc4F)no3)CN(C(=O)N3CCOCC3)C2)cc1 (racemic) [Example 37, 4-({3-[3-(2,4-Difluorophenyl)-1,2,4-oxadiazol-5-yl]-5-(4-ethylphenyl)piperidin-1-yl}carbonyl)-morpholine] | 21 nM |
| Cc1ccncc1-c1csc(C2CC(c3ccc(C(F)(F)F)cc3)CN(C(=O)N3CCOCC3)C2)n1 (racemic) [Example 113, 4-({3-[4-(4-Methylpyridin-3-yl)-1,3-thiazol-2-yl]-5-[4-(trifluoromethyl)phenyl]piperidin-1-yl}carbonyl)morpholine] | 47 nM |
| O=C(N1CCOCC1)N1CC(c2ccc(C(F)(F)F)cc2)CC(c2nc(-c3cccnc3)cs2)C1 (racemic) [Example 119, 4-({3-(4-Pyridin-3-yl-1,3-thiazol-2-yl)-5-[4-(trifluoromethyl)phenyl]piperidin-1-yl}carbonyl)-morpholine] | 68 nM |
| O=C(N1CC(c2ccc(OC(F)(F)F)cc2)CC(c2nc(C3CC3)no2)C1)N1CCC(F)(F)C1 (racemic) [Example 144, {3-(3-Cyclopropyl-1,2,4-oxadiazol-5-yl)-5-[4-(trifluoromethoxy)phenyl]piperidin-1-yl}(3,3-difluoropyrrolidin-1-yl)methanone] | 8.51 nM |
| Cc1ccc(C2CC(c3nc(C(C)C)no3)CN(C(=O)N3CCOCC3)C2)cc1C (racemic) [Example 148, {3-(3,4-Dimethylphenyl)-5-[3-(propan-2-yl)-1,2,4-oxadiazol-5-yl]piperidin-1-yl}(morpholin-4-yl)methanone] | 14 nM |
| CCc1ccc(C2CC(c3nc(CCOC)no3)CN(C(=O)N3CCOCC3)C2)cc1 (racemic) [Example 150, {3-(4-Ethylphenyl)-5-[3-(2-methoxyethyl)-1,2,4-oxadiazol-5-yl]piperidin-1-yl}(morpholin-4-yl)methanone] | 19 nM |
| CCc1ccc(C2CC(c3nc(C(C)(C)C)no3)CN(C(=O)N3CCC(O)CC3)C2)cc1 (racemic) [Example 152] | 48.1 nM |
| O=C(N1CCOCC1)N1CC(c2ccc(C(F)(F)F)cc2)CC(c2noc(-c3cccc(F)c3)n2)C1 (racemic) [Example 159, {3-[5-(3-Fluorophenyl)-1,2,4-oxadiazol-3-yl]-5-[4-(trifluoromethyl)phenyl]piperidin-1-yl}-(morpholin-4-yl)methanone] | 4.61 nM |
| O=C(N1CCOCC1)N1CC(c2ccc(C(F)(F)F)cc2)CC(c2noc(-c3ccccc3)n2)C1 (racemic) [Example 160, Morpholin-4-yl{3-(5-phenyl-1,2,4-oxadiazol-3-yl)-5-[4(trifluoromethyl)phenyl]piperidin-1-yl}-methanone] | 5.4 nM |
| CC(C)c1nc(C2CC(c3ccc(C(F)(F)F)cc3)CN(C(=O)N3CCOCC3)C2)no1 (racemic) [Example 169, Morpholin-4-yl{3-[5-(propan-2-yl)-1,2,4-oxadiazol-3-yl]-5-[4-(trifluoromethyl)phenyl]piperidin-1-yl}methanone] | 6.74 nM |
| CC1CN(C(=O)N2CC(c3ccc(C(F)(F)F)cc3)CC(c3nc(C4CC4)no3)C2)C1 (racemic) [Example 181, {3-(3-Cyclopropyl-1,2,4-oxadiazol-5-yl)-5-[4-(trifluoromethyl)phenyl]piperidin-1-yl}(3-methylazetidin-1-yl)methanone] | 28.8 nM |
| CCc1ccc(C2CC(c3nc(CCOC)no3)CN(C(=O)N3CCC(O)CC3)C2)cc1 (racemic) [Example 183, {3-(4-Ethylphenyl)-5-[3-(2-methoxyethyl)-1,2,4-oxadiazol-5-yl]piperidin-1-yl}(4-hydroxy-piperidin-1-yl)methanone] | 31.5 nM |
| CCc1ccc(C2CC(c3nc(C(C)(C)O)no3)CN(C(=O)N3CCC(O)CC3)C2)cc1 (racemic) [Example 187, {3-(4-Ethylphenyl)-5-[3-(2-hydroxypropan-2-yl)-1,2,4-oxadiazol-5-yl]piperidin-1-yl}(4-hydroxy-piperidin-1-yl)methanone] | 53.4 nM |
| Cc1ccc(C2CC(c3nc(C(C)C)no3)CN(C(=O)N3CCC(C#N)CC3)C2)cc1C (racemic) [Example 197, 1-({3-(3,4-Dimethylphenyl)-5-[3-(propan-2-yl)-1,2,4-oxadiazol-5-yl]piperidin-1-yl}carbonyl)-piperidine-4-carbonitrile] | 77.5 nM |
| CC(C)(O)Cc1noc(C2CC(c3ccc(C(F)(F)F)cc3)CN(C(=O)N3CCC(C#N)CC3)C2)n1 (racemic) [Example 212, 1-({3-[3-(2-Hydroxy-2-methylpropyl)-1,2,4-oxadiazol-5-yl]-5-[4-(trifluoromethyl)phenyl]-piperidin-1-yl}carbonyl)piperidine-4-carbonitrile] | 142 nM |
| Cc1cc(C2CC(c3nc(-c4cccc(F)c4)no3)CN(C(=O)N3CCC(O)CC3)C2)ccc1OC(F)(F)F (racemic) [Example 229, {3-[3-(3-Fluorophenyl)-1,2,4-oxadiazol-5-yl]-5-[3-methyl-4-(trifluoromethoxy)phenyl]piperidin-1-yl}(4-hydroxypiperidin-1-yl)methanone] | 1.72 nM |
| Cc1cc(C2CC(c3nc(C4CC4)no3)CN(C(=O)N3CCC(O)CC3)C2)ccc1OC(F)(F)F (racemic) [Example 230, {3-(3-Cyclopropyl-1,2,4-oxadiazol-5-yl)-5-[3-methyl-4-(trifluoromethoxy)phenyl]piperidin-1-yl}(4-hydroxypiperidin-1-yl)methanone] | 2.81 nM |
| Cc1ccc(C2CC(c3nc(-c4cccc(F)c4)no3)CN(C(=O)N3CCC(O)CC3)C2)cc1C (racemic) [Example 232, {3-(3,4-Dimethylphenyl)-5-[3-(3-fluorophenyl)-1,2,4-oxadiazol-5-yl]piperidin-1-yl}(4-hydroxy-piperidin-1-yl)methanone] | 6.44 nM |
| Cc1ccc(C2CC(c3nc(C(C)C)no3)CN(C(=O)N3CCC(O)CC3)C2)cc1C (racemic) [Example 234, {3-(3,4-Dimethylphenyl)-5-[3-(propan-2-yl)-1,2,4-oxadiazol-5-yl]piperidin-1-yl}(4-hydroxy-piperidin-1-yl)methanone] | 15.4 nM |
| Cc1cc(-c2noc(C3CC(c4ccc(OC(F)(F)F)cc4)CN(C(=O)N4CCOCC4)C3)n2)no1 (racemic) [Example 249, {3-[3-(5-Methylisoxazol-3-yl)-1,2,4-oxadiazol-5-yl]-5-[4-(trifluoromethoxy)phenyl]piperidin-1-yl}(morpholin-4-yl)methanone] | 13.1 nM |
| CC(C)(C)c1noc(C2CC(c3ccc(C(F)(F)F)cc3)CN(C(=O)N3CCC(C#N)CC3)C2)n1 (racemic) [Example 283, 1-({3-(3-tert-Butyl-1,2,4-oxadiazol-5-yl)-5-[4-(trifluoromethyl)phenyl]piperidin-1-yl}carbonyl)-piperidine-4-carbonitrile] | 14.9 nM |
| CC(C)c1noc(C2CC(c3ccc(C(F)(F)F)cc3)CN(C(=O)N3CCC(C#N)CC3)C2)n1 (racemic) [Example 284, 1-({3-[3-(Propan-2-yl)-1,2,4-oxadiazol-5-yl]-5-[4-(trifluoromethyl)phenyl]piperidin-1-yl}-carbonyl)piperidine-4-carbonitrile] | 9.73 nM |
| Cc1ccncc1-c1noc(C2CC(c3ccc(C(F)(F)F)cc3)CN(C(=O)N3CCOCC3)C2)n1 (racemic) [Example 329, {3-[3-(4-Methylpyridin-3-yl)-1,2,4-oxadiazol-5-yl]-5-[4-(trifluoromethyl)phenyl]piperidin-1-yl}-(morpholin-4-yl)methanone] | 24 nM |

— patent US8119663B2, “Heteroaryl-substituted piperidines” (Bayer Pharma Aktiengesellschaft, priority 2007, dated 2012)
